In one series the test system is IL-6. Nature of the series: THP-1 AlphaLISA IL-6 cytokine assay. Type of series: cell-based. The note with it: Homo sapiens. How it is done:
(§1) Biological Example 1—THP-1 AlphaLISA IL-1β and IL-6 Cytokine Assay Measuring Inhibitory Effects on IL-1, and IL-6 Cytokine Output from THP-1s The cytokine inhibition profiles of compounds of formula (I) were determined in a differentiated THP-1 cell assay. All assays were performed in RPMI-1640 growth medium (Gibco), supplemented with 10% fetal bovine serum (FBS; Gibco), 1% penicillin-streptomycin and 1% sodium pyruvate unless specified otherwise. The IL-1β and IL-6 cytokine inhibition assays were each run in a background of differentiated THP-1 cells as described below. All reagents described were from Sigma-Aldrich unless specified otherwise. Compounds were prepared as 10 mM DMSO stocks. THP-1 cells were expanded as a suspension up to 80% confluence in appropriate growth medium. Cells were harvested, suspended, and treated with an appropriate concentration of phorbol 12-myristate 13-acetate (PMA) over a 72 hr period (37° C./5% CO2). Following 72 hrs of THP-1 cell incubation, cellular medium was removed and replaced with fresh growth media containing 1% of FBS. Working concentrations of compounds were prepared separately in 10% FBS treated growth medium and pre-incubated with the cells for 30 minutes (37° C./5% CO2). Following the 30 minute compound pre-incubation, THP-1s were treated with an appropriate concentration of LPS and the THP-1s were subsequently incubated for a 24 hr period (37° C./5% CO2). An appropriate final concentration of Nigericin was then dispensed into the THP-1 plates and incubated for 1 hour (37° C./5% CO2) before THP-1 supernatants were harvested and collected in separate polypropylene 96-well holding plates. Reagents from each of the IL-1β and IL-6 commercial kits (Perkin Elmer) were prepared and run according to the manufacturer's instructions. Subsequently, fluorescence signal detection in a microplate reader was measured (EnVision® Multilabel Reader, Perkin Elmer). Percentage inhibition was calculated per cytokine by normalizing the sample data to the high and low controls used within each plate (+/−LPS respectively). Percentage inhibition was then plotted against compound concentration and the 50% inhibitory concentration (IC50) was determined from the resultant concentration-response curve.
In general terms: Alpha assays give light when donor and acceptor beads are brought close together.

The subject of another series is IL-1β. The series can be described thus: THP-1 AlphaLISA IL-1β cytokine assay. Type of series: cell-based. The note with it: for IC50: Homo sapiens, differentiated THP-1 cells, Table 2, compounds of formula (II). How it is done: as §1
The test system of a further series is NRF2. Nature of the series: NRF2 activation assay (DiscoverX PathHunter NRF2 translocation kit, U2OS cells). Type of series: cell-based. How it is done: Biological Example 2—NRF2 Activation Assay Measuring Compound Activation Effects on the Anti-Inflammatory Transcription Factor NRF2 in DiscoverX PathHunter NRF2 Translocation Kit Potency and efficacy of compounds of formula (I) against the target of interest to activate NRF2 (nuclear factor erythroid 2-related factor 2) were determined using the PathHunter NRF2 translocation kit (DiscoverX). The NRF2 translocation assay was run using an engineered recombinant cell line, utilising enzyme fragment complementation to determine activation of the Keap1-NRF2 protein complex and subsequent translocation of NRF2 into the nucleus. Enzyme activity was quantified using a chemiluminescent substrate consumed following the formation of a functional enzyme upon PK-tagged NRF2 translocation into the nucleus. Additionally, a defined concentration of dimethyl fumarate was used as the ‘High’ control to normalise test compound activation responses to. U2OS PathHunter eXpress cells were thawed from frozen prior to plating. Following plating, U2OS cells were incubated for 24 hrs (37° C./5% CO2) in commercial kit provided cell medium. Following 24 hrs of U2OS incubation, cells were directly treated with an appropriate final concentration of compound. Following compound treatment, the U2OS plates were incubated for a further 6 hours (37° C./5% CO2) before detection reagent from the PathHunter NRF2 commercial kit was prepared and added to test plates according to the manufacturer's instructions. Subsequently, the luminescence signal detection in a microplate reader was measured (PHERAstar®, BMG Labtech). Percentage activation was calculated by normalising the sample data to the high and low controls used within each plate (+/−DMF). Percentage activation/response was then plotted against compound concentration and the 50% activation concentration (EC50) was determined from the plotted concentration-response curve.

For series [1], the system named is hepatocytes. Nature of the series: Hepatocyte stability assay, human. Type of series: in vitro ADME. The following applies: 10 μM compound, Table 6. An excerpt:
(§2) Biological Example 3—Hepatocyte Stability Assay
(§3) Defrosted cryo-preserved hepatocytes (viability >70%) are used to determine the metabolic stability of a compound via calculation of intrinsic clearance (CIint; a measure of the removal of a compound from the liver in the absence of blood flow and cell binding). Clearance data are particularly important for […] as they can be used in combination with in vivo data to predict the half-life and oral bioavailability of a drug.
(§4) The metabolic stability in hepatocytes assay involves a time-dependent reaction using both positive and negative controls. The cells must be pre-incubated at 37° C. then spiked with test compound (and positive control); samples taken at pre-determined time intervals are analysed to monitor the change in concentration of the initial drug compound over 60 minutes. A buffer incubation reaction (with no hepatocytes present) acts as a negative control and two cocktail solutions, containing compounds with known high and low clearance values (verapamil/7-hydroxycoumarin and propranolol/diltiazem), act as positive controls. • 1. The assay is run with a cell concentration of 0.5×10^6 cells/mL in Leibovitz buffer. • 2. All compounds and controls are run in duplicate. • 3. Compound concentration is 10 μM. • 4. All compounds and controls are incubated with both cells and buffer to show turnover is due to hepatic metabolism. • 5. All wells on the incubation plate will have 326.7 μL of either cells or buffer added. • 6. Prior to assay, cell and buffer-only incubation plates are preincubated for 10 mins at 37° C. • 7. The assay is initiated by adding compounds, 3.3 μL of 1 mM in 10% DMSO-90% Buffer; final DMSO concentration is 0.1%. • 8. Samples are taken at regular timepoints (0, 5, 10, 20, 40, 60 min) until 60 mins. • 9. Sample volume is 40 μL and it is added to 160 μL of crash solvent (acetonitrile with internal standard) and stored on ice. • 10. At the end of the assay, the crash plates are centrifuged at 3500 rpm for 20 mins at 4° C. • 11. 80 μL of clear supernatant is removed and mixed with 80 μL of deionised water before being analysed by LC-MS/MS.
(§5) Raw LC-MS/MS data are exported to, and analysed in, Microsoft Excel for determination of intrinsic clearance. The percentage remaining of a compound is monitored using the peak area of the initial concentration as 100%. Intrinsic clearance and half-life values are calculated using a graph of the natural log of percentage remaining versus the time of reaction in minutes. Half-life (min) and intrinsic clearance (CIint in μL min^−1 10^−6 cells) values are calculated using the gradient of the graph (the elimination rate constant, k) and Equations 1 and 2.

For series [2], the system named is hepatocytes. The series can be described thus: Hepatocyte stability assay, mouse. The note with it: 10 μM compound, Table 6. Type of series: in vitro ADME.
Text: as §2, §3, §4, §5

[3] abbreviates: THP-1, differentiated THP-1 cells, Table 2, compounds of formula (II).
Setting [4] is: +GSH, Table 4, compounds of formula (II).
Setting [5] is: −GSH, Table 4, compounds of formula (II).

Where a name gives a salt, the structure may show the parent alone.

With `N#Cc1ccc(C2(OC(=O)/C=C/C(=O)O)CCC2)cc1` [Intermediate 27, (E)-4-(1-(4-cyanophenyl)cyclobutoxy)-4-oxobut-2-enoic acid], the IC50 in the series with IL-6 (setting [3]) was 6 to 30 µM; with IL-1β, 50 to 100 µM.
With `O=C(O)/C=C/C(=O)OC1(c2ccc(Cl)cc2)CCC1` [Intermediate 13, (E)-4-(1-(4-chlorophenyl)cyclobutoxy)-4-oxobut-2-enoic acid], the 50% inhibitory concentration (IC50) with IL-6 (setting [3]) and in the series with IL-1β was 6 to 30 µM throughout.
For the compound `O=C(O)/C=C/C(=O)OC1(c2ccc(Cl)cn2)CCC1` [Intermediate 24, (E)-4-(1-(5-chloropyridin-2-yl)cyclobutoxy)-4-oxobut-2-enoic acid], the IC50 is 6 to 30 µM in the series with IL-6 (setting [3]) and 30 to 50 µM with IL-1β.
Regarding `COc1cc(OC)cc(C2(OC(=O)/C=C/C(=O)O)CCC2)c1` [Intermediate 40, (E)-4-(1-(3,5-dimethoxyphenyl)cyclobutoxy)-4-oxobut-2-enoic acid], the figures for the half-inhibitory concentration (IC50) in the series on IL-6 (setting [3]) and in the series on IL-1β were 30 to 50 µM and > 100 µM, respectively.
Take `N#C[C@H]1C[C@](OC(=O)/C=C/C(=O)O)(c2ccc(C(F)(F)F)cc2)C1` (single isomer, unassigned) [Intermediate 34, (E)-4-((cis)-3-cyano-1-(4-(trifluoromethyl)phenyl)cyclobutoxy)-4-oxobut-2-enoic acid]: the IC50 was in the range of 30 to 50 µM with IL-6 (setting [3]) and 6 to 30 µM in the series with IL-1β.
As for `COC(=O)/C=C/C(=O)OC` [dimethyl fumarate, Dimethyl fumarate, reference compound], the IC50 with IL-6 (THP-1, differentiated THP-1 cells, LPS then Nigericin, Table 1) is 9.3 µM. Further, the concentration for a half-maximal effect (EC50) with NRF2 (+GSH, Table 3) is > 100 µM; in the series with NRF2 (−GSH, Table 3), 6.1 µM. The “NRF2 activation Emax” value is 17.1% in the series on NRF2 (+GSH, normalised to dimethyl fumarate high control, Table 3) and 100% in the series with NRF2 (−GSH, normalised to dimethyl fumarate high control, Table 3).
For the compound `O=C(O)/C=C/C(=O)OC1(c2ncc(C(F)(F)F)cn2)CCC1` [Intermediate 39, (E)-4-oxo-4-(1-(5-(trifluoromethyl)pyrimidin-2-yl)cyclobutoxy)but-2-enoic acid], the IC50 in the series with IL-6 (setting [3]) and in the series with IL-1β was 30 to 50 µM throughout.
As to `O=C(O)/C=C/C(=O)OC1(c2ccc(Br)cn2)CCC1` [Intermediate 23, (E)-4-(1-(5-bromopyridin-2-yl)cyclobutoxy)-4-oxobut-2-enoic acid], the IC50 in the series with IL-6 (differentiated THP-1 cells, Table 2, compounds of formula (II)) fell in the range of 6 to 30 µM; in the series with IL-1β, 6 to 30 µM.
As to `CCCCCCCCOC(=O)/C=C/C(=O)O` [Intermediate 5, Octyl Fumarate], in the series with NRF2 (setting [4]), the 50% effective concentration (EC50) is < 23 µM and the “NRF2 activation Emax” value is “++++ (++++ means >150%)”. Further, in the series with NRF2 (setting [5]), the concentration for a half-maximal effect (EC50) is < 23 µM and the “NRF2 activation Emax” value was “++++ (++++ means >150%)”.
Regarding `COC(=O)/C=C/C(=O)O` [monomethyl fumarate, Monomethyl fumarate, reference compound], the IC50 with IL-6 (setting [3]) and with IL-1β was > 100 µM in each case. For the same compound, the concentration giving a half-maximal response (EC50) in the series on NRF2 (setting [4]) is 48.4 µM; in the series on NRF2 (setting [5]), 23 µM. Moreover, the “NRF2 activation Emax” value in the series with NRF2 (setting [4]) was determined as 87%; in the series with NRF2 (setting [5]), 114%.
On to `O=C(O)/C=C/C(=O)OC1(c2ccccc2C(F)(F)F)CCC1` [Intermediate 11, (E)-4-oxo-4-(1-(2-(trifluoromethyl)phenyl)cyclobutoxy)but-2-enoic acid], for which the IC50 in the series with IL-6 (setting [3]) was > 100 µM; in the series with IL-1β it was 50 to 100 µM.
On to `CC1(OC(=O)/C=C/C(=O)O)CCC1` [Intermediate 4, (E)-4-(1-methylcyclobutoxy)-4-oxobut-2-enoic acid], for which the EC50 is 23 to 48.4 µM in the series with NRF2 (setting [4]) and < 23 µM in the series with NRF2 (setting [5]). The “NRF2 activation Emax” value with NRF2 (setting [4]) is listed as “+ (+ means >50-<87%)”; in the series on NRF2 (setting [5]), “+++ (+++ means >114-150%)”. For the same compound, in the series with IL-1β, the half-inhibitory concentration (IC50) was > 100 µM. Also, the “activity in the THP-1 cytokine assays (in words)” value in the series on IL-1β (THP-1 IL-1β and IL-6 assays) is given as “not active”.
Turning to `O=C(O)/C=C/C(=O)OC(c1ccc(C(F)(F)F)cc1)C(F)(F)F` (single isomer, unassigned) [Intermediate 45, (E)-4-oxo-4-(2,2,2-trifluoro-1-(4-(trifluoromethyl)phenyl)ethoxy)but-2-enoic acid], the CIint result was “++ (++ means >30-110)” with hepatocytes [1] and “+ (+ means >110-277)” in the series on hepatocytes [2]. In addition, the T½ entry in the series with hepatocytes [1] is reported as “++ (++ means 5-29)”; in the series with hepatocytes [2], 4 min.
Take `O=C(O)/C=C/C(=O)OC1(c2ccc(C(F)F)cc2)CCC1` [Intermediate 31, (E)-4-(1-(4-(difluoromethyl)phenyl)cyclobutoxy)-4-oxobut-2-enoic acid]: the IC50 in the series with IL-6 (setting [3]) and in the series with IL-1β was 6 to 30 µM in each case.
For the compound `O=C(O)/C=C/C(=O)OC1(c2ccc(C(F)(F)F)nc2)CCC1` [Intermediate 15, (E)-4-oxo-4-(1-(6-(trifluoromethyl)pyridin-3-yl)cyclobutoxy)but-2-enoic acid], the figures for the IC50 in the series with IL-6 (setting [3]) and in the series with IL-1β were > 100 µM and 30 to 50 µM, respectively.
As for `O=C(O)/C=C/C(=O)OC1(c2ccc(C(F)(F)F)cc2)CCOCC1` [Intermediate 35, (E)-4-oxo-4-((4-(4-(trifluoromethyl)phenyl)tetrahydro-2H-pyran-4-yl)oxy)but-2-enoic acid], the figures for the IC50 in the series on IL-6 (setting [3]) and in the series with IL-1β were > 100 µM and 50 to 100 µM, respectively.
The corresponding values for `O=C(O)/C=C/C(=O)OC1(c2cc(F)c(F)c(F)c2)CCC1` [Intermediate 28, (E)-4-oxo-4-(1-(3,4,5-trifluorophenyl)cyclobutoxy)but-2-enoic acid] are 6 to 30 µM and 6 to 30 µM.
In the case of `O=C(O)/C=C/C(=O)OC1(c2ccc(C(F)(F)F)cn2)CCC1` [Intermediate 9, (E)-4-oxo-4-(1-(5-(trifluoromethyl)pyridin-2-yl)cyclobutoxy)but-2-enoic acid], the IC50 with IL-6 (setting [3]) and in the series with IL-1β was 6 to 30 µM throughout.

One may read the IC50 as the concentration that inhibits the measured activity by half. What is called EC50 is the concentration at which the effect is half-maximal. High values mean lower potency in that assay, low ones higher potency in that assay.

Values taken from patent US20240010606A1, “FUMARATE DERIVATIVES AND THEIR MEDICAL USE” (Sitryx Therapeutics Limited, priority 2020, published 2024).
